Test results published in patent publication US7998952B2, “Thiolactams and uses thereof” (Millennium Pharmaceuticals, Inc., priority 2008, dated 2011).

Molecular target: T1, recombinant human PLK1[2-369]T210D (Homo sapiens, UniProt P53350, T210D)
T1 construct: recombinant human PLK1[2-369]T210D; Smt (SUMO) fusion partner (N, cleaved yes); host or cells: E. coli
Assay: PLK1 DELFIA Kinase Assay
Format: biochemical
Conditions: 50 μM ATP, 2 μM peptide substrate, 0.3 nM enzyme, 90 minutes at room temperature
Experimental: Recombinant human PLK1 was expressed in E. coli as an N-terminal Smt fusion protein using a proprietary vector (pSGX4) by Structural Genomics (SGX). The fusion partner was removed through cleavage with Ulp1 after an initial purification using a Ni2+ affinity column.
PLK1 DELFIA® Kinase Assay
The enzymatic reaction mixture, with or without PLK inhibitors, was incubated 90 minutes at room temperature before termination with 50 μL of STOP buffer containing 1% BSA, 0.05% Tween20, 100 mM EDTA. 50 μL of the stopped enzyme reaction mixture was transferred to a Neutravidin-coated 384-well plate (Pierce) and incubated at room temperature for 60 minutes. […] The wells were washed and then the bound europium was liberated using 50 μL of Enhancement Solution (Perkin Elmer). Quantification of europium was done using a Pherastar (BMG Labtech)

T1 sequence (P53350 2-369 T210D): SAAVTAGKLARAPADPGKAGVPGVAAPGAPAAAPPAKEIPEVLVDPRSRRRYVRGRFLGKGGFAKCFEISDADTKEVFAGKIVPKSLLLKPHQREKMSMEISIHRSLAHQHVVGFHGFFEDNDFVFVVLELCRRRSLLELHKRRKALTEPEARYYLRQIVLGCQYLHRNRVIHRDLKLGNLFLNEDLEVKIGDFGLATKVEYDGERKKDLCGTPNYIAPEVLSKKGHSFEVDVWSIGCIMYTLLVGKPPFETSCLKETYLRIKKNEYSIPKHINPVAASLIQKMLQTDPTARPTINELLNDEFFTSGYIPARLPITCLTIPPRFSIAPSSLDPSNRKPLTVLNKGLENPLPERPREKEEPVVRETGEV

First: Cc1nc(OC2CCN(C)CC2)ccc1Nc1ncc2c(n1)-c1ccc(Cl)cc1NC(=S)C2 [Compound I-56, 9-chloro-2-({2-methyl-6-[(1-methylpiperidin-4-yl)oxy]pyridin-3-yl}amino)-5,7-dihydro-6H-pyrimido[5,4-d][1]benzazepine-6-thione]
Second: Cc1nc(OC2CCN(C)CC2)ccc1Nc1ncc2c(n1)-c1ccc(C(F)(F)F)cc1NC(=S)C2 [Compound I-77, 2-({2-methyl-6-[(1-methylpiperidin-4-yl)oxy]pyridin-3-yl}amino)-9-(trifluoromethyl)-5,7-dihydro-6H-pyrimido[5,4-d][1]benzazepine-6-thione]
The IC50 of the first is higher: 5 to 25 nM for the first, < 5 nM for the second. The second is the more potent here.

`Cc1nc(NC(C)C)ccc1Nc1ncc2c(n1)-c1ccc(C(F)(F)F)cc1NC(=S)C2` [Compound I-57, 2-{[6-(isopropylamino)-2-methylpyridin-3-yl]amino}-9-(trifluoromethyl)-5,7-dihydro-6H-pyrimido[5,4-d][1]benzazepine-6-thione] and `Cc1nc(NCCN(C)C)ccc1Nc1ncc2c(n1)-c1ccc(C(F)(F)F)cc1NC(=S)C2` [Compound I-64, 2-[(6-{[2-(dimethylamino)ethyl]amino}-2-methylpyridin-3-yl)amino]-9-(trifluoromethyl)-5,7-dihydro-6H-pyrimido[5,4-d][1]benzazepine-6-thione] cannot be ordered by IC50: < 5 nM for the first, < 5 nM for the second.

`CCN1CCN(c2cncc(Nc3ncc4c(n3)-c3ccc(Cl)cc3NC(=S)C4)c2)C[C@H]1C` [Compound I-58, 9-chloro-2-({5-[(3R)-4-ethyl-3-methylpiperazin-1-yl]pyridin-3-yl}amino)-5,7-dihydro-6H-pyrimido[5,4-d][1]benzazepine-6-thione] and `CCN1CCN(c2cnc(C)c(Nc3ncc4c(n3)-c3ccc(Cl)cc3NC(=S)C4)c2)C[C@@H]1C` [Compound I-66, 9-chloro-2-({5-[(3S)-4-ethyl-3-methylpiperazin-1-yl]-2-methylpyridin-3-yl}amino)-5,7-dihydro-6H-pyrimido[5,4-d][1]benzazepine-6-thione] cannot be ordered by IC50: < 5 nM for the first, < 5 nM for the second.

`Cc1ncc(CCN2CCC(N(C)C)CC2)cc1Nc1ncc2c(n1)-c1ccc(Cl)cc1NC(=S)C2` [Compound I-59, 9-chloro-2-[(5-{2-[4-(dimethylamino)piperidin-1-yl]ethyl}-2-methylpyridin-3-yl)amino]-5,7-dihydro-6H-pyrimido[5,4-d][1]benzazepine-6-thione] and `Cc1ncc(CCN2CCOCC2)cc1Nc1ncc2c(n1)-c1ccc(Cl)cc1NC(=S)C2` [Compound I-72, 9-chloro-2-{[2-methyl-5-(2-morpholin-4-ylethyl)pyridin-3-yl]amino}-5,7-dihydro-6H-pyrimido[5,4-d][1]benzazepine-6-thione] cannot be ordered by IC50: < 5 nM for the first, < 5 nM for the second.

Compared with `Cc1ccc2c(c1)NC(=S)Cc1cnc(Nc3cc(CCCN(C)C)cnc3C)nc1-2` [Compound I-60, 2-({5-[3-(dimethylamino)propyl]-2-methylpyridin-3-yl}amino)-9-methyl-5,7-dihydro-6H-pyrimido[5,4-d][1]benzazepine-6-thione], `Cc1ncc(CCCN(C)C)cc1Nc1ncc2c(n1)-c1ccc(C#N)cc1NC(=S)C2` [Compound I-79, 2-({5-[3-(dimethylamino)propyl]-2-methylpyridin-3-yl}amino)-6-thioxo-6,7-dihydro-5H-pyrimido[5,4-d][1]benzazepine-9-carbonitrile] is higher in IC50: < 5 nM for the first, 5 to 25 nM for the second.

`CN1CCN(c2ccc(Nc3ncc4c(n3)-c3ccc(C(F)(F)F)cc3NC(=S)C4)cn2)CC1` [Compound I-61, 2-{[6-(4-methylpiperazin-1-yl)pyridin-3-yl]amino}-9-(trifluoromethyl)-5,7-dihydro-6H-pyrimido[5,4-d][1]benzazepine-6-thione] and `Cc1nc(N2CCN(C)CC2)ccc1Nc1ncc2c(n1)-c1ccc(Cl)cc1NC(=S)C2` [Compound I-73, 9-chloro-2-{[2-methyl-6-(4-methylpiperazin-1-yl)pyridin-3-yl]amino}-5,7-dihydro-6H-pyrimido[5,4-d][1]benzazepine-6-thione] cannot be ordered by IC50: < 5 nM for the first, < 5 nM for the second.

First: CNCCCc1cnc(C)c(Nc2ncc3c(n2)-c2ccc(C(F)(F)F)cc2NC(=S)C3)c1 [Compound I-62, 2-({2-methyl-5-[3-(methylamino)propyl]pyridin-3-yl}amino)-9-(trifluoromethyl)-5,7-dihydro-6H-pyrimido[5,4-d][1]benzazepine-6-thione]
Second: CN(C)CCc1cnc(C(F)(F)F)c(Nc2ncc3c(n2)-c2ccc(Cl)cc2NC(=S)C3)c1 [Compound I-70, 9-chloro-2-{[5-[2-(dimethylamino)ethyl]-2-(trifluoromethyl)pyridin-3-yl]amino}-5,7-dihydro-6H-pyrimido[5,4-d][1]benzazepine-6-thione]
The IC50 of the first is lower: < 5 nM for the first, 5 to 25 nM for the second. The first is the more potent here.

`Cc1ncc(C2CCN(C)CC2(C)C)cc1Nc1ncc2c(n1)-c1ccc(Cl)cc1NC(=S)C2` (centres unmarked) [Compound I-63, 9-chloro-2-{[2-methyl-5-(1,3,3-trimethylpiperidin-4-yl)pyridin-3-yl]amino}-5,7-dihydro-6H-pyrimido[5,4-d][1]benzazepine-6-thione] and `Cc1ncc(C2CCN(CCF)CC2)cc1Nc1ncc2c(n1)-c1ccc(Cl)cc1NC(=S)C2` [Compound I-84, 9-chloro-2-({5-[1-(2-fluoroethyl)piperidin-4-yl]-2-methylpyridin-3-yl}amino)-5,7-dihydro-6H-pyrimido[5,4-d][1]benzazepine-6-thione] cannot be ordered by IC50: < 5 nM for the first, < 5 nM for the second.

`Cc1nc(NCC2CCN(C)CC2)ccc1Nc1ncc2c(n1)-c1ccc(C(F)(F)F)cc1NC(=S)C2` [Compound I-65] and `Cc1nc(N(C)C2CCN(C)CC2)ccc1Nc1ncc2c(n1)-c1ccc(C(F)(F)F)cc1NC(=S)C2` [Compound I-75, 2-({2-methyl-6-[methyl(1-methylpiperidin-4-yl)amino]pyridin-3-yl}amino)-9-(trifluoromethyl)-5,7-dihydro-6H-pyrimido[5,4-d][1]benzazepine-6-thione] cannot be ordered by IC50: < 5 nM for the first, < 5 nM for the second.

`Cc1nc(NC2CCNCC2)ccc1Nc1ncc2c(n1)-c1ccc(C(F)(F)F)cc1NC(=S)C2` [Compound I-67, 2-{[2-methyl-6-(piperidin-4-ylamino)pyridin-3-yl]amino}-9-(trifluoromethyl)-5,7-dihydro-6H-pyrimido[5,4-d][1]benzazepine-6-thione] and `Cc1cc(NC2CCN(C)CC2)ncc1Nc1ncc2c(n1)-c1ccc(C(F)(F)F)cc1NC(=S)C2` [Compound I-74, 2-({4-methyl-6-[(1-methylpiperidin-4-yl)amino]pyridin-3-yl}amino)-9-(trifluoromethyl)-5,7-dihydro-6H-pyrimido[5,4-d][1]benzazepine-6-thione] cannot be ordered by IC50: < 5 nM for the first, < 5 nM for the second.

First: Nc1ccc(Nc2ncc3c(n2)-c2ccc(Cl)cc2NC(=S)C3)cn1 [Compound I-68, 2-[(6-aminopyridin-3-yl)amino]-9-chloro-5,7-dihydro-6H-pyrimido[5,4-d][1]benzazepine-6-thione]
Second: CN(C)CCCN(C)c1ccc(Nc2ncc3c(n2)-c2ccc(Cl)cc2NC(=S)C3)cn1 [Compound I-71, 9-chloro-2-({6-[[3-(dimethylamino)propyl](methyl)amino]pyridin-3-yl}amino)-5,7-dihydro-6H-pyrimido[5,4-d][1]benzazepine-6-thione]
The IC50 of the first is lower: < 5 nM for the first, 5 to 25 nM for the second. The first is the more potent here.

First: Cc1nc(N2CCC(N(C)C)CC2)ccc1Nc1ncc2c(n1)-c1ccc(Cl)cc1NC(=S)C2 [Compound I-69, 9-chloro-2-({6-[4-(dimethylamino)piperidin-1-yl]-2-methylpyridin-3-yl}amino)-5,7-dihydro-6H-pyrimido[5,4-d][1]benzazepine-6-thione]
Second: Cc1nc(N2CCCCC2)ccc1Nc1ncc2c(n1)-c1ccc(Cl)cc1NC(=S)C2 [Compound I-82, 9-chloro-2-[(2-methyl-6-piperidin-1-ylpyridin-3-yl)amino]-5,7-dihydro-6H-pyrimido[5,4-d][1]benzazepine-6-thione]
The IC50 of the first is lower: < 5 nM for the first, 5 to 25 nM for the second.

`Cc1nc(NCCCN(C)C)ccc1Nc1ncc2c(n1)-c1ccc(Cl)cc1NC(=S)C2` [Compound I-76, 9-chloro-2-[(6-{[3-(dimethylamino)propyl]amino}-2-methylpyridin-3-yl)amino]-5,7-dihydro-6H-pyrimido[5,4-d][1]benzazepine-6-thione] and `Cc1ccc(Nc2ncc3c(n2)-c2ccc(Cl)cc2NC(=S)C3)c(C)n1` [Compound I-81, 9-chloro-2-[(2,6-dimethylpyridin-3-yl)amino]-5,7-dihydro-6H-pyrimido[5,4-d][1]benzazepine-6-thione] cannot be ordered by IC50: < 5 nM for the first, < 5 nM for the second.

First: S=C1Cc2cnc(Nc3cncc(CCN4CCOCC4)c3)nc2-c2ccc(Cl)cc2N1 [Compound I-78, 9-chloro-2-{[5-(2-morpholin-4-ylethyl)pyridin-3-yl]amino}-5,7-dihydro-6H-pyrimido[5,4-d][1]benzazepine-6-thione]
Second: Cc1nc(N2CCOCC2)ccc1Nc1ncc2c(n1)-c1cc(CCCN(C)C)c(Cl)cc1NC(=S)C2 [Compound I-83, 9-chloro-10-[3-(dimethylamino)propyl]-2-[(2-methyl-6-morpholin-4-ylpyridin-3-yl)amino]-5,7-dihydro-6H-pyrimido[5,4-d][1]benzazepine-6-thione]
The IC50 of the first is lower: < 5 nM for the first, 5 to 25 nM for the second.

For `Cc1nc(NC2CCN(C)CC2)ccc1Nc1ncc2c(n1)-c1ccc(C3CC3)cc1NC(=S)C2` [Compound I-80, 9-cyclopropyl-2-({2-methyl-6-[(1-methylpiperidin-4-yl)amino]pyridin-3-yl}amino)-5,7-dihydro-6H-pyrimido[5,4-d][1]benzazepine-6-thione], the IC50 was < 5 nM.
